Earlier results in US20060264384A1, “Compositions and methods for treatment for neoplasms” (priority 2005, published 2006).

solubility in water	SMILES	solubility in organic solvents
barely soluble in water	CCN(CC)C(=S)SSC(=S)N(CC)CC [Disulfiram]	soluble in solvents such as alcohol, ether, acetone, and benzene
slightly soluble	CCc1c2c(nc3ccc(OC(=O)N4CCC(N5CCCCC5)CC4)cc13)-c1cc3c(c(=O)n1C2)COC(=O)[C@]3(O)CC [Irinotecan]	slightly soluble
up to 1 mg/ml	CC[C@@]1(O)C(=O)OCc2c1cc1n(c2=O)Cc2cc3c(CN(C)C)c(O)ccc3nc2-1 [Topotecan]	
